What was measured:
[1] = target: AHAS protein WT (Arabidopsis thaliana, UniProt P17597); assay: biochemical; conditions: for pI50 WT: AHAS WT
Description: (§1) Bacteria are grown at 37° C. in LB-medium containing 100 mg/l carbenicillin and 25 mg/l canamycin, induced with 1 mM isopropyl-β-D-thiogalactopyranoside at an OD600 of 0.6, cultivated for 16 hours at 18° C. and harvested by, e.g., centrifugation. Bacterial pellets are resuspended in 100 mM sodium phosphate buffer pH 7.0 containing 0.1 mM thiamine-pyrophosphate, 1 mM MgCl2, and 1 μM FAD at a concentration of 1 gram wet weight per 25 ml of buffer and disrupted by, e.g., sonification. The crude protein extract obtained after centrifugation is used for ALS activity measurements.
(§2) ALS protein can be extracted from leaves or tissue cultures, such as B. napus or B. juncea leaves, or B. napus or B. juncea tissue cultures as described by Ray (Plant Physiol, 1984, 75:827-831). An ALS assays can be carried out in 96-well microtiter plates using a modification of the procedure described by Ray (1984): The reaction mixture contains 20 mM potassium phosphate buffer pH 7.0, 20 mM sodium pyruvate, 0.45 mM thiamine-pyrophosphate, 0.45 mM MgCl2, 9 μM FAD. ALS enzyme and various concentrations of ALS inhibitors can be mixed in a final volume of 90 μl. Assays can be initiated by adding enzyme and the assays can be terminated after 75 min incubation at 30° C. by the addition of 40 μl 0.5 M H2SO4.

[2] = target: AHAS protein comprising the P197S mutation (Arabidopsis thaliana, UniProt P17597, P197S); assay: biochemical; conditions: for Resistance Factor P197S: AHAS P197S relative to WT; for pI50 P197S: AHAS P197S
AHAS protein comprising the P197S mutation, sequence (P17597 56-670 P197S): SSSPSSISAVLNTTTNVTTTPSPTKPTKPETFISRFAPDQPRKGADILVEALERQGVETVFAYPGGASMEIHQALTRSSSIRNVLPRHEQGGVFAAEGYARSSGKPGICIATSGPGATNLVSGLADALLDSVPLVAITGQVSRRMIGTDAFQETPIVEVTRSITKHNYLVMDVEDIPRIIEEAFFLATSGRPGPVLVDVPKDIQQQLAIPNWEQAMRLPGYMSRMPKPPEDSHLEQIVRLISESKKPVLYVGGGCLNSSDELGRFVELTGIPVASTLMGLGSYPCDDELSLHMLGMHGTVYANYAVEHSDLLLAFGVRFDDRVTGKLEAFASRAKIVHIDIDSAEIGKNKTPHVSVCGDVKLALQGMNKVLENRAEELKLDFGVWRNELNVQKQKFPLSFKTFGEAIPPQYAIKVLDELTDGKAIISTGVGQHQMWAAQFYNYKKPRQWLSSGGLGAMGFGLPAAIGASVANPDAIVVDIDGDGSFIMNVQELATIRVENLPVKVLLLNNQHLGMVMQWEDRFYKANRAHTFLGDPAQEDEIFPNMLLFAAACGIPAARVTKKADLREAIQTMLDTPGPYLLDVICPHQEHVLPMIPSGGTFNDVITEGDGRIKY
Description: as §1, §2

[3] = target: AHAS protein comprising the W574L mutation (Arabidopsis thaliana, UniProt P17597, W574L); assay: biochemical; conditions: for Resistance Factor W574L: AHAS W574L relative to WT; for pI50 W574L: AHAS W574L
AHAS protein comprising the W574L mutation, sequence (P17597 56-670 W574L): as the sequence (P17597 56-670 P197S) above, with S142P, W519L counted along it
Description: as §1, §2

[4] = target: AHAS protein comprising both the P197S and W574L mutation in one ALS protein (Arabidopsis thaliana, UniProt P17597, P197S/W574L); assay type: biochemical; conditions: both mutations in one ALS protein; for Resistance Factor P197S-W574L (in one protein): relative to WT
AHAS protein comprising both the P197S and W574L mutation in one ALS protein, sequence (P17597 56-670 P197S/W574L): as the sequence (P17597 56-670 P197S) above, with W519L counted along it
Description: as §1, §2

[5] = target: mixture of two ALS proteins, one comprising the P197S and the other the W574L mutation (Arabidopsis thaliana, UniProt P17597, P197S/W574L); assay: biochemical; conditions: for Resistance Factor P197S & W574L (mixture): calculated mixture of two ALS proteins, relative to WT; for pI50 P197S & W574L (mixture): mixture of two ALS proteins, calculated as described in WO 2013/127766
mixture of two ALS proteins, one comprising the P197S and the other the W574L mutation, sequence (P17597 56-670 P197S/W574L): as the sequence (P17597 56-670 P197S) above, with W519L counted along it

[6] = tested on: wild-type (WT) oilseed rape; assay: Field test of visible phytotoxicity upon herbicide spraying, wild-type; assay type: in vivo, Brassica napus; conditions: g ai/ha: imazamox 40, bispyribac-sodium 50, propoxycarbazone-sodium 70, mesosulfuron-methyl 60, pyroxsulam 12.5 + cloquintocet-mexyl 37.5, each + rapeseed oil methylated 366.5, 0%=no phytotoxic effects, 100%=all plants killed
Excerpt: (§3) Seeds of spring oilseed rape homozygous for HETO132 and HETO134, and seeds of spring oilseed rape homozygous for HETO133 and HETO 134 were sown in a field according to typical practical agricultural methods. Several ALS inhibitor herbicides were applied to the oilseed rape plants by using specific spray equipment for small plot applications. […] The use of all herbicides in the test lead to a clearly better tolerance of the spring oilseed rape lines homozygous for HETO132 and HETO134 as compared to a standard variety not comprising ALS alleles according to the invention.

[7] = tested on: oilseed rape homozygous for HETO133 and HETO134; assay: Field test of visible phytotoxicity upon herbicide spraying, HETO133-HETO134; assay type: in vivo, Brassica napus; conditions: g ai/ha: imazamox 40, bispyribac-sodium 50, propoxycarbazone-sodium 70, mesosulfuron-methyl 60, pyroxsulam 12.5 + cloquintocet-mexyl 37.5, each + rapeseed oil methylated 366.5, 0%=no phytotoxic effects, 100%=all plants killed
Excerpt: as §3

[8] = tested on: oilseed rape homozygous for HETO132 and HETO134; assay: Field test of visible phytotoxicity upon herbicide spraying, HETO132-HETO134; assay type: in vivo, Brassica napus; conditions: g ai/ha: imazamox 40, bispyribac-sodium 50, propoxycarbazone-sodium 70, mesosulfuron-methyl 60, pyroxsulam 12.5 + cloquintocet-mexyl 37.5, each + rapeseed oil methylated 366.5, 0%=no phytotoxic effects, 100%=all plants killed
Excerpt: as §3

AHAS protein WT, sequence (P17597 56-670): as the sequence (P17597 56-670 P197S) above, with S142P counted along it

Compound	IC50 [1] [µM]	IC50 [2] [µM]	Resistance Factor P197S [2]	IC50 [3] [µM]	Resistance Factor W574L [3]	pI50 P197S-W574L (in one protein) [4]	Resistance Factor P197S-W574L (in one protein) [4]	IC50 [5] [µM]	Resistance Factor P197S & W574L (mixture) [5]	also measured
COc1cc(OC)nc(NC(=O)NS(=O)(=O)c2ncccc2C(F)(F)F)n1 [Flazasulfuron, flazasulfuron]	0.000794	0.1	120	3.16	3802	<4	>120226	0.631	794	
COCc1cnc(C2=NC(C)(C(C)C)C(=O)N2)c(C(=O)O)c1 (centres unmarked) [Imazamox, imazamox]	3.98	5.01	1	> 100	>22	<4	>22	79.4	20	Percentage phytotoxicity 9 DAA wild-type [6]: 73.3%; Percentage phytotoxicity 16 DAA wild-type [6]: 98%; Percentage phytotoxicity 24 DAA wild-type [6]: 99%; Percentage phytotoxicity 9 DAA HETO133-HETO134 [7]: 6.7%; Percentage phytotoxicity 16 DAA HETO133-HETO134 [7]: 10%; Percentage phytotoxicity 24 DAA HETO133-HETO134 [7]: 0%; Percentage phytotoxicity 9 DAA HETO132-HETO134 [8]: 6.7%; Percentage phytotoxicity 16 DAA HETO132-HETO134 [8]: 8.7%; Percentage phytotoxicity 24 DAA HETO132-HETO134 [8]: 0%
COc1cc(OC)n2nc(S(=O)(=O)Nc3c(Cl)ccc(C)c3Cl)nc2n1 [Metosulam, metosulam]	0.00316	1.58	457	20	5754	<4	>28840	6.31	2512	
COC(=O)c1ccccc1S(=O)(=O)NC(=O)Nc1nc(C)nc(OC)n1 [Metsulfuron-methyl, metsulfuron-methyl]			38		755		>7547			
COc1cc(OC)nc(NC(=O)NS(=O)(=O)N(C)S(C)(=O)=O)n1 [Amidosulfuron, amidosulfuron]	0.2	> 100	>488	> 100	>488	<4	>488	> 100	>501	
COC(=O)c1sccc1S(=O)(=O)NC(=O)Nc1nc(C)nc(OC)n1 [Thifensulfuron-Methyl, thifensulfuron-methyl]	0.0398	7.94	200	63.1	1585	<4	>2511	25.1	631	
CCCOc1nn(C(=O)[N-]S(=O)(=O)c2ccccc2C(=O)OC)c(=O)n1C.[Na+] [Propoxycarbazone]			147		293		>4641		200	
COC(=O)c1ccc(C(F)(F)F)nc1S(=O)(=O)NC(=O)Nc1nc(OC)cc(OC)n1 [Flupyrsulfuron-methyl]							>47863			
COc1cc(OC)n2nc(NS(=O)(=O)c3c(C(F)(F)F)ccnc3OC)nc2n1 [Pyroxsulam, pyroxsulam]			261		>41368	<4	>41368		6310	pI50 WT [1]: 8.6; pI50 P197S [2]: 6.2; pI50 W574L [3]: <4; pI50 P197S & W574L (mixture) [5]: 4.8
COc1cc(OC)nc(Oc2cccc(Oc3nc(OC)cc(OC)n3)c2C(=O)O)n1 [Bispyribac-sodium, bispyribac-sodium]	0.0158	0.0794	4	7.94	447	<4	>5623	0.794	40	Percentage phytotoxicity 9 DAA wild-type [6]: 76.7%; Percentage phytotoxicity 16 DAA wild-type [6]: 98.3%; Percentage phytotoxicity 24 DAA wild-type [6]: 100%; Percentage phytotoxicity 9 DAA HETO133-HETO134 [7]: 56.7%; Percentage phytotoxicity 16 DAA HETO133-HETO134 [7]: 88.3%; Percentage phytotoxicity 24 DAA HETO133-HETO134 [7]: 92.7%; Percentage phytotoxicity 9 DAA HETO132-HETO134 [8]: 46.7%; Percentage phytotoxicity 16 DAA HETO132-HETO134 [8]: 71.7%; Percentage phytotoxicity 24 DAA HETO132-HETO134 [8]: 43.3%
CCCOc1nn(C(=O)[N-]S(=O)(=O)c2ccccc2C(=O)OC)c(=O)n1C.[Na+] [PROPOXYCARBAZONE-SODIUM, propoxycarbazone-sodium]										Percentage phytotoxicity 9 DAA wild-type [6]: 76.7%; Percentage phytotoxicity 16 DAA wild-type [6]: 97%; Percentage phytotoxicity 24 DAA wild-type [6]: 97.7%; Percentage phytotoxicity 9 DAA HETO133-HETO134 [7]: 53.3%; Percentage phytotoxicity 16 DAA HETO133-HETO134 [7]: 82.7%; Percentage phytotoxicity 24 DAA HETO133-HETO134 [7]: 76.7%; Percentage phytotoxicity 9 DAA HETO132-HETO134 [8]: 40%; Percentage phytotoxicity 16 DAA HETO132-HETO134 [8]: 36.7%; Percentage phytotoxicity 24 DAA HETO132-HETO134 [8]: 11.7%
COC(=O)c1csc(C)c1S(=O)(=O)NC(=O)n1nc(OC)n(C)c1=O [Thiencarbazone-methyl, thiencarbazone-methyl]			1173		1173		>7399		1259	
CCS(=O)(=O)c1nc2ccccn2c1S(=O)(=O)NC(=O)Nc1nc(OC)cc(OC)n1 [Sulfosulfuron, sulfosulfuron]	0.02	39.8	1848	> 100	>4641	<4	>4641	251	10000	
COc1cc(OC)nc(NC(=O)NS(=O)(=O)c2ncccc2C(=O)N(C)C)n1 [Nicosulfuron, nicosulfuron]	0.158	1	6	> 100	>607	<4	>607	31.6	251	
COC(=O)c1ccc(I)cc1S(=O)(=O)[N-]C(=O)Nc1nc(C)nc(OC)n1.[Na+] [Iodosulfuron-methy-sodium, iodosulfuron-methyl-sodium]			139		555		>35030		316	
CCS(=O)(=O)c1cccnc1S(=O)(=O)NC(=O)Nc1nc(OC)cc(OC)n1 [Rimsulfuron, rimsulfuron]	0.02	0.398	18	10	447	<4	>4466	2	63	
COc1ncc(F)c2nc(S(=O)(=O)Nc3c(F)cccc3F)nn12 [Florasulam, florasulam]			28		1738	<4	>6918		200	pI50 WT [1]: 7.8; pI50 P197S [2]: 6.4; pI50 W574L [3]: 4.6; pI50 P197S & W574L (mixture) [5]: 5.5
COC(=O)c1ccc(CNS(C)(=O)=O)cc1S(=O)(=O)NC(=O)Nc1nc(OC)cc(OC)n1 [Mesosulfuron-methyl, mesosulfuron-methyl]			65		25770		>64730		794	

Source: US20190136254A1, “ALS Inhibitor Herbicide Tolerant Mutant Plants” (BASF SE, priority 2013, published 2019)
